The target in one test is T1, human TTK (Homo sapiens, UniProt P33981).
T1 construct: Active TTK was purchased from Invitrogen as an amino terminal GST fusion of full length human TTK; purchased Invitrogen
T1 sequence (P33981 1-857): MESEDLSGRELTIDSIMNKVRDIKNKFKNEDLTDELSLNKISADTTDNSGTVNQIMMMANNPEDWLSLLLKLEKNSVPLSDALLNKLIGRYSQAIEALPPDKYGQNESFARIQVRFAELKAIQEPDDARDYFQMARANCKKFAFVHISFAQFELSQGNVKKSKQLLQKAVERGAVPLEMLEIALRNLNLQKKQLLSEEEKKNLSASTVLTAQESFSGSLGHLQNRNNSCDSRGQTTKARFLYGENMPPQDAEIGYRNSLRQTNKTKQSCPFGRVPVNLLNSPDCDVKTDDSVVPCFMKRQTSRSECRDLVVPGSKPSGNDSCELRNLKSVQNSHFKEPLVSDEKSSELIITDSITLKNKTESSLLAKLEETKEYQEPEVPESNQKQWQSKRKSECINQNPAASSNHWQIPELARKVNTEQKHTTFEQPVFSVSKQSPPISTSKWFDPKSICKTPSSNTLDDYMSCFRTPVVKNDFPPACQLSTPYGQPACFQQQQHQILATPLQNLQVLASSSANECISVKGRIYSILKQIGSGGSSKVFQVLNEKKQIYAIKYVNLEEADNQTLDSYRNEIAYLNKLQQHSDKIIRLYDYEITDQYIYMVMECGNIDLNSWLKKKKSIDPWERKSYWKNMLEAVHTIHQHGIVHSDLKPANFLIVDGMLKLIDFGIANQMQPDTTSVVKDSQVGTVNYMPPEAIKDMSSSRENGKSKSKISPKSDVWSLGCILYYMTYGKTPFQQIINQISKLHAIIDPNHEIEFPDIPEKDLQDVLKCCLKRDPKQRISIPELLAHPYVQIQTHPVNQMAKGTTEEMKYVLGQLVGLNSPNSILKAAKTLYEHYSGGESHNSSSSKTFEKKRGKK
The test is described as follows: TTK inhibition assay (indirect ELISA). In kind it is biochemical. A digest of the protocol: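 Activity detected by indirect ELISA after compounds sat with full-length GST-TTK for 5 min prior to starting the reaction with ATP. IC50 came from a four-parameter logistic curve of % inhibition, calculated against background and uninhibited control wells.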

Test [1] has as its system colon cancer cells (HCT116). The test is described as follows: Cancer cell line growth inhibition, Sulforhodamine B assay, HCT116. Type of test: cell-based. The conditions noted are these: Homo sapiens, read-out: Cancer Cell Line GI50 Range HCT116. The gist of the method: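 GI50 is calculated from growth inhibition relative to DMSO controls, using TCA-fixed, SRB-stained protein mass read at 570 nm. Compound, 10 nM–50 μM final in 10% FBS DMEM, was applied for 5 days to HCT116 cells that had been plated 24 h before at 1000–4000/well.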

Test [2] concerns breast cancer cells (MDA-MB-468). The test is described as follows: Cancer cell line growth inhibition, Sulforhodamine B assay, MDA-MB-468. In kind it is cell-based. As to conditions: Homo sapiens, read-out: Cancer Cell Line GI50 Range MDA-MB-468. A digest of the protocol: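 Sulforhodamine B staining (TCA-fixed, read at 570 nm) estimates cell mass after 5-day compound treatment of MDA-MB-468 cells, final concentrations 10 nM to 50 μM in 10% FBS DMEM. GI50 derived from growth inhibition versus DMSO controls.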

Test [3] relates to ovarian cancer cells (PA-1). The test is described as follows: Cancer cell line growth inhibition, Sulforhodamine B assay, PA-1. In kind it is cell-based. As to conditions: 120 h; Table 1; PA-1, 5 days, SRB; read-out: Cancer Cell Line GI50 Range PA-1. The method, then: Breast cancer cells (MDA-MB-231 and MDA-MB-468), colon cancer cells (HCT116) and ovarian cancer cells (PA-1 and OVCAR-3) were seeded (1000 to 4000 in 80 μl per well depending on the cell growth rate) into 96 well plates 24 hours before compound overlay. Compounds were prepared as 10 mM stock solutions in 100% DMSO which were diluted with DMEM (Dulbecco's Modified Eagle's Medium) cell growth Medium (Invitrogen, Burlington, ON, Canada) containing 10% FBS (Fetal Bovine Serum) to concentrations ranging from 50 nM to 250 μM. Aliquots (20 μl) from each concentration were overlaid to 80 μl of the pre-seeded cells in the 96 well plates to make final concentrations of 10 nM to 50 μM. The cells were cultured for 5 days before the Sulforhodamine B assay (SRB) was performed to determine the compound's cell growth inhibition activity.
Sulforhodamine B (purchased from Sigma, Oakville, ON, Canada) is a water-soluble dye that binds to the basic amino acids of the cellular proteins. Thus, colorimetric measurement of the bound dye provides an estimate of the total protein mass that is related to the cell number. the cells are fixed in situ by gently aspirating off the culture media and adding 50 μl ice cold 10% Trichloroacetic Acid (TCA) per well and incubate at 4° C. for 30-60 min, The plates are washed with H2O five times and allowed to air dry for 5 min. Addition of 50 μl 0.4% (w/v) SRB solution in 1% (v/v) acetic acid to each well and incubation for 30 min at RT completes the staining reaction. Following staining, plates are washed four times with 1% acetic acid to remove unbound dye and then allowed to air dry for 5 min. The stain is solubilized with 100 μl of 10 mM Tris pH 10.5 per well. Absorbance is read at 570 nm.
The percentage (%) of relative growth inhibition was calculated by comparing to DMSO treated only cells (100%). GI50's were determined for compounds with cytotoxic activity. The GI50 was calculated using GraphPad PRISM software (GraphPad Software, Inc., San Diego, Calif., USA).
In Table 1 below, GI50 value ranges for compound examples against breast cancer cell lines (MDA-MB-468), colon cancer cell lines (HCT116) and ovarian cancer cell lines (PA-1) are given.
In Table 2 below, GI50 value ranges for compound examples against breast cancer cell lines (MDA-MB-231), colon cancer cell lines (HCT116) and ovarian cancer cell lines (PA-1) are given.

Test [4] concerns ovarian cancer cells (OVCAR-3). Description: Cancer cell line growth inhibition, Sulforhodamine B assay, OVCAR-3. Type of test: cell-based. The conditions noted are these: Homo sapiens, OVCAR-3, OVCAR-3 ovarian cancer cell line; read-out: Cancer Cell Line GI50 Range OVCAR-3. The gist of the method:
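OVCAR-3 cells were seeded 24 h before compound addition, then exposed for 5 days to final concentrations of 10 nM to 50 μM in DMEM with 10% FBS. Growth was measured by TCA fixation and sulforhodamine B staining with absorbance at 570 nm. Inhibition was relative to DMSO-only cells, and GI50 came from curve fitting.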

For test [5], the system named is Ovarian 2393A tumor initiating cells. Description: Tumor-initiating cell growth inhibition, Alamar Blue assay, ovarian TICs. In kind it is cell-based. As to conditions: 144 h; Ovarian 2393A TICs, 6 days; read-out: Tumor Initiating Cell GI50 Range Ovarian 2393A. The source says: (§1) Non-tissue or tissue cultured treated T-75 flask and 96-well plates were purchased from VWR. Vitamin B-27 supplement, MEM NEAA (minimum essential medium non essential amino acids), sodium pyruvate, L-glutamine, N2 supplement, penicillin-streptomycin and fungizone/amphotericin B were obtained from Invitrogen. Lipid mixture, heparin and EGF were purchased from Sigma; bFGF from BD Biosciences. Tumor Initiating Cells (TICs) from colon were routinely maintained using non-tissue cultured treated T-75 flasks in DMEM:F12 medium containing 0.2XB-27 supplement, 4 ug/ml heparin, 1×MEM NEAA, 1×sodium pyruvate, 1 mM glutamine, 10 pg/ul bFGF, 20 pg/ul EGF, 1× N2 supplement, lipid mixture, penicillin-streptomycin and fungizone/amphotericin B. Ovarian TICs were routinely maintained using tissue cultured treated T-75 flasks in DMEM:F12 medium containing IXB-27 supplement, 4 ug/ml heparin, 20 pg/ul bFGF, 20 pg/ul EGF and penicillin-streptomycin.
(§2) Compounds described herein were dissolved in DMSO and further diluted in cell culture medium for GI50 determination. Colon TICs were trypsinized and seeded into non-tissue cultured treated 96-well plates with 4,000 cells/well. After 24 h, compound was added into the cell culture at different concentrations, and the final concentration of DMSO was adjusted to 0.1%. Cells were then cultured at 37° C. for 9 days. Ovarian TICs were trypsinized and seeded into tissue cultured treated 96-well plates with 1,000 cells/well. After 24 h, compound was added into the cell culture at different concentrations, and the final concentration of DMSO was adjusted to 0.1%. Cells were then cultured at 37° C. for 6 days. Cell viability was assessed by Alamar Blue assay: 10 ul of Alamar Blue was added into each well. After 4 hours incubation at 37° C., fluorescence was recorded at excitation 544 and emission 590. GI50 (Growth inhibition) was calculated using GraphPad Prism 4.0 software.
(§3) In Table 1 below, GI50 value ranges for compound examples against TICs (Colon 12 and Ovarian 2393A) are given.

The subject of test [6] is Colon 12 tumor initiating cells. The test is described as follows: Tumor-initiating cell growth inhibition, Alamar Blue assay, colon TICs. Type of test: cell-based. The conditions noted are these: 216 h; Colon 12 TICs, 9 days; read-out: Tumor Initiating Cell GI50 Range Colon 12.
Text: as §1, §2, §3

The mark [7] stands for this setting: Table 1, 16 μM ATP (asterisk), read-out: TTK IC50 Range.
Where [8] appears, read: HCT-116, 120 h, Table 1, HCT116, 5 days, SRB.
Where [9] appears, read: MDA-MB-468, 120 h, Table 1, MDA-MB-468, 5 days, SRB.
The mark [10] stands for this setting: 100 μM ATP, read-out: TTK IC50 Range.
The mark [11] stands for this setting: HCT-116, HCT116 colon cancer cell line.
Setting [12] is: MDA-MB-468, MDA-MB-468 breast cancer cell line.

Read-outs that look alike come from different tables or passages of the source.

As to `O=C(NC1CC1)c1ccc(-c2cnn3c(NCCN4CCOCC4)nc(Oc4cccnc4)nc23)cc1` [Example A8, N-cyclopropyl-4-(4-((2-morpholinoethyl)amino)-2-(pyridin-3-yloxy)pyrazolo[1,5-a][1,3,5]triazin-8-yl)benzamide], the IC50 on human TTK (setting [7]) is more than 500 nM. Moreover, the 50% growth inhibitory concentration (GI50) in test [1] (setting [8]), in test [2] (setting [9]) and in test [3] was more than 500 nM throughout.
With `O=C(NC1CC1)c1ccc(-c2cnn3c(NCC4CCOCC4)nc(OC4CCCC4)nc23)cc1` [Example A11, 4-(2-(cyclopentyloxy)-4-(((tetrahydro-2H-pyran-4-yl)methyl)amino)pyrazolo[1,5-a][1,3,5]triazin-8-yl)-N-cyclopropylbenzamide], the IC50 on human TTK (setting [7]) was less than 100 nM. Moreover, the values for the GI50 in test [1] (setting [8]), in test [2] (setting [9]) and in test [3] were 100 to 500 nM, more than 500 nM and 100 to 500 nM, respectively.
`O=C(NC1CC1)c1ccc(-c2cnn3c(NCC4CCOCC4)nc(Oc4ccccc4)nc23)cc1` [Example A10, N-cyclopropyl-4-(2-phenoxy-4-(((tetrahydro-2H-pyran-4-yl)methyl)amino)pyrazolo[1,5-a][1,3,5]triazin-8-yl)benzamide]: at human TTK (setting [7]), the IC50 was less than 100 nM. In addition, the GI50 in test [1] (setting [8]) was 100 to 500 nM; in test [2] (setting [9]), more than 500 nM; in test [3] it was 100 to 500 nM.
As to `Cc1cc(-c2cnn3c(NCC4CCOCC4)cc(N[C@H](CO)C(C)C)nc23)ccc1C(=O)NC1CC1` [Example C38, (S)-N-cyclopropyl-4-(5-((1-hydroxy-3-methylbutan-2-yl)amino)-7-(((tetrahydro-2H-pyran-4-yl)methyl)amino)pyrazolo[1,5-a]pyrimidin-3-yl)-2-methylbenzamide], the IC50 at human TTK (setting [10]) was less than 100 nM. Besides, the GI50 in test [1] (setting [11]), in test [2] (setting [12]), in test [4], in test [5] and in test [6] was not above 100 nM in each case.
In the case of `Cc1cc(-c2cnn3c(NCC4CCOCC4)cc(N[C@H](CO)CC(C)C)nc23)ccc1C(=O)NC1CC1` [Example C130], the IC50 at human TTK (setting [10]) is less than 100 nM. The 50% growth inhibitory concentration (GI50) is not above 100 nM in test [1] (setting [11]); 100 to 500 nM in test [2] (setting [12]); 100 to 500 nM in test [4]; not above 100 nM in test [5]; not above 100 nM in test [6].
For `COc1ccc(Oc2nc(NCC3CCOCC3)n3ncc(-c4ccc(C(=O)NC5CC5)c(C)c4)c3n2)c(F)c1` [Example C25], the IC50 at human TTK (16 μM ATP (Sigma cat# A7699), read-out: TTK IC50 Range (denoted with an asterisk)) was less than 100 nM. In addition, the GI50 in test [1] (setting [11]) is not above 100 nM; in test [2] (setting [12]), 100 to 500 nM; in test [4] it was 100 to 500 nM; in test [5], 100 to 500 nM; in test [6], not above 100 nM.
Take `O=C(NC1CC1)c1ccc(-c2cnn3c(NCC4CCOCC4)nc(Oc4cccnc4)nc23)cc1` [Example A13, N-cyclopropyl-4-(2-(pyridin-3-yloxy)-4-(((tetrahydro-2H-pyran-4-yl)methyl)amino)-pyrazolo[1,5-a][1,3,5]triazin-8-yl)benzamide]: the IC50 on human TTK (setting [7]) is less than 100 nM. Further, the values for the GI50 in test [1] (setting [8]), in test [2] (setting [9]) and in test [3] were more than 500 nM, more than 500 nM and 100 to 500 nM, respectively.
As to `Cc1cc(-c2cnn3c(NCC4(F)CCNCC4)cc(Oc4cccc(F)c4)nc23)ccc1C(=O)NC1CC1` [Example C146], at human TTK (setting [10]), the half-inhibitory concentration (IC50) was less than 100 nM. Besides, the GI50 in test [1] (setting [11]) is not above 100 nM; in test [2] (setting [12]) it was not above 100 nM; in test [4], 100 to 500 nM; in test [5], not above 100 nM; in test [6], not above 100 nM.
For `Cc1cc(-c2cnn3c(NCC4CCOCC4)cc(N[C@H](CO)C4CCCC4)nc23)ccc1C(=O)NC1CC1` [Example C165], the IC50 on human TTK (setting [10]) was less than 100 nM. For the same compound, the GI50 in test [1] (setting [11]) was not above 100 nM; in test [2] (setting [12]), 100 to 500 nM; in test [4] it was 100 to 500 nM; in test [5] it was 100 to 500 nM; in test [6], not above 100 nM.
